Test results reported in patent publication US6479435B1, “Diaryl ethers and processes for their preparation and herbicidal and desiccant compositions containing them” (ISK Americas Incorporated, priority 1997, dated 2002).

Tests used:
Assay type in all cases: in vivo
[1] = system: Johnsongrass (Sorghum halepense, SORHA); experiment: Pre-emerge greenhouse herbicide test, phytotoxicity rating; conditions: 14 days after application, rating scale 0-100
Outline: (§1)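 Visual 0–100 injury rating (100 = all plants dead) taken 14 days after treatment. Rates of 125–1000 g ai/ha in acetone, 187 l/ha, were sprayed onto soil one day post-sowing; pots were surface-watered to incorporate, then bottom-watered.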

[2] = system: barnyardgrass (Echinochloa crusgalli, ECHCG); experiment: as above; conditions: 14 days after application, rating scale 0-100
Outline: as §1

[3] = system: common ragweed (Ambrosia artemisiifolia L., AMBEL); experiment: as above; conditions: 14 days after application, rating scale 0-100
Outline: as §1

[4] = system: green foxtail (Setaria viridis, SETVI); experiment: as above; conditions: 14 days after application, rating scale 0-100
Outline: as §1

[5] = system: ivyleaf morningglory (Ipomoea hederacea, IPOHE); experiment: as above; conditions: 14 days after application, rating scale 0-100
Outline: as §1

[6] = system: lambsquarters (Chenopodium album, CHEAL); experiment: as above; conditions: 14 days after application, rating scale 0-100
Outline: as §1

[7] = system: large crabgrass (Digitaria sanguinalis, DIGSA); experiment: as above; conditions: 14 days after application, rating scale 0-100
Outline: as §1

[8] = system: redroot pigweed (Amaranthus retroflexus, AMARE); experiment: as above; conditions: 14 days after application, rating scale 0-100
Outline: as §1

[9] = system: sicklepod (Cassia obtusifolia, CASOB); experiment: as above; conditions: 14 days after application, rating scale 0-100
Outline: as §1

[10] = system: velvetleaf (Abutilon theophrasti, ABUTH); experiment: as above; conditions: 14 days after application, rating scale 0-100
Outline: as §1

[11] = system: field corn (Zea mays L., var. Dekalb 535, CORN); experiment: Pre-emerge greenhouse test, crop damage rating; conditions: 14 days after application, rating scale 0-100
Outline: as §1

[12] = system: upland rice (Oryza sp., var.Tebonnet, RICE); experiment: Pre-emerge greenhouse test, crop damage rating; conditions: 14 days after application, rating scale 0-100
Outline: as §1

[13] = system: soybean (Glycine max L., var. Pella 86, SOY); experiment: Pre-emerge greenhouse test, crop damage rating; set-up: key to SOY crop damage rating: 0 = no damage, 100 = complete death of all plants; conditions: 14 days after application, rating scale 0-100
Outline: as §1

[14] = system: common ragweed (Ambrosia artemisiifolia L., AMBEL); experiment: Post-emerge greenhouse herbicide test, phytotoxicity rating; conditions: 14 days after application; for phytotoxicity rating AMBEL: scale 0-100
Outline: (§2)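 Scores use a 0 (no damage) to 100 (complete kill) scale, taken 14 days after a foliar spray. Acetone solutions with 0.25% v/v non-ionic surfactant were applied by track sprayer at 187 l/ha and 63-1000 g ai/ha to bottom-watered 2-3 leaf plants.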

[15] = system: Johnsongrass (Sorghum halepense, SORHA); experiment: as above; conditions: 14 days after application; for phytotoxicity rating SORHA: scale 0-100
Outline: as §2

[16] = system: barnyardgrass (Echinochloa crusgalli, ECHCG); experiment: as above; conditions: 14 days after application; for phytotoxicity rating ECHCG: scale 0-100
Outline: as §2

[17] = system: green foxtail (Setaria viridis, SETVI); experiment: as above; conditions: 14 days after application; for phytotoxicity rating SETVI: scale 0-100
Outline: as §2

[18] = system: ivyleaf morningglory (Ipomoea hederacea, IPOHE); experiment: as above; conditions: 14 days after application; for phytotoxicity rating IPOHE: scale 0-100
Outline: as §2

[19] = system: lambsquarters (Chenopodium album, CHEAL); experiment: as above; conditions: 14 days after application; for phytotoxicity rating CHEAL: scale 0-100
Outline: as §2

[20] = system: large crabgrass (Digitaria sanguinalis, DIGSA); experiment: as above; conditions: 14 days after application; for phytotoxicity rating DIGSA: scale 0-100
Outline: as §2

[21] = system: redroot pigweed (Amaranthus retroflexus, AMARE); experiment: as above; conditions: 14 days after application; for phytotoxicity rating AMARE: scale 0-100
Outline: as §2

[22] = system: velvetleaf (Abutilon theophrasti, ABUTH); experiment: as above; conditions: 14 days after application; for phytotoxicity rating ABUTH: scale 0-100
Outline: as §2

[23] = system: field corn (Zea mays L., var. Dekalb 535, CORN); experiment: Post-emerge greenhouse test, crop damage rating; conditions: 14 days after application; for crop damage rating CORN: scale 0-100
Outline: as §2

[24] = system: upland rice (Oryza sp., var.Tebonnet, RICE); experiment: Post-emerge greenhouse test, crop damage rating; conditions: 14 days after application; for crop damage rating RICE: scale 0-100
Outline: as §2

[25] = system: soybean (Glycine max L., var. Pella 86, SOY); experiment: Post-emerge greenhouse test, crop damage rating; set-up: key to crop damage rating SOY: 0-100 scale: 0 = no damage, 100 = complete death of all plants; conditions: 14 days after application; for crop damage rating SOY: scale 0-100
Outline: as §2

N#Cc1cc([N+](=O)[O-])ccc1Oc1cc(-n2c(=O)n3n(c2=S)CCCC3)c(F)cc1Cl [Compound 8-12]
phytotoxicity rating SORHA ([1]; 125 g ai/ha): 0 | phytotoxicity rating SORHA ([1]; 500 g ai/ha): 40 | phytotoxicity rating ECHCG ([2]; 125 g ai/ha): 0 | phytotoxicity rating ECHCG ([2]; 500 g ai/ha): 0 | phytotoxicity rating AMBEL ([3]; 125 g ai/ha): 90 | phytotoxicity rating AMBEL ([3]; 500 g ai/ha): 90 | phytotoxicity rating SETVI ([4]; 125 g ai/ha): 0 | phytotoxicity rating SETVI ([4]; 500 g ai/ha): 70 | phytotoxicity rating IPOHE ([5]; 125 g ai/ha): 0 | phytotoxicity rating IPOHE ([5]; 500 g ai/ha): 70 | phytotoxicity rating CHEAL ([6]; 125 g ai/ha): 100 | phytotoxicity rating CHEAL ([6]; 500 g ai/ha): 100 | phytotoxicity rating DIGSA ([7]; 125 g ai/ha): 0 | phytotoxicity rating DIGSA ([7]; 500 g ai/ha): 50 | phytotoxicity rating AMARE ([8]; 125 g ai/ha): 90 | phytotoxicity rating AMARE ([8]; 500 g ai/ha): 100 | phytotoxicity rating CASOB ([9]; 125 g ai/ha): 0 | phytotoxicity rating CASOB ([9]; 500 g ai/ha): 0 | phytotoxicity rating ABUTH ([10]; 125 g ai/ha): 95 | phytotoxicity rating ABUTH ([10]; 500 g ai/ha): 100 | crop damage rating CORN ([11]; 125 g ai/ha): 0 | crop damage rating CORN ([11]; 500 g ai/ha): 0 | crop damage rating RICE ([12]; 125 g ai/ha): 20 | crop damage rating RICE ([12]; 500 g ai/ha): 50 | crop damage rating SOY ([13]; 125 g ai/ha): 0 | crop damage rating SOY ([13]; 500 g ai/ha): 0 | AMBEL phytotoxicity rating (0-100) ([14]; 63 g al/ha): 50 | AMBEL phytotoxicity rating (0-100) ([14]; 500 g al/ha): 70 | SORHA phytotoxicity rating (0-100) ([15]; 63 g al/ha): 0 | SORHA phytotoxicity rating (0-100) ([15]; 500 g al/ha): 50 | ECHCG phytotoxicity rating (0-100) ([16]; 63 g al/ha): 0 | ECHCG phytotoxicity rating (0-100) ([16]; 500 g al/ha): 40 | SETVI phytotoxicity rating (0-100) ([17]; 63 g al/ha): 0 | SETVI phytotoxicity rating (0-100) ([17]; 500 g al/ha): 30 | IPOHE phytotoxicity rating (0-100) ([18]; 63 g al/ha): 80 | IPOHE phytotoxicity rating (0-100) ([18]; 500 g al/ha): 70 | CHEAL phytotoxicity rating (0-100) ([19]; 63 g al/ha): 80 | CHEAL phytotoxicity rating (0-100) ([19]; 500 g al/ha): 70 | DIGSA phytotoxicity rating (0-100) ([20]; 63 g al/ha): 0 | DIGSA phytotoxicity rating (0-100) ([20]; 500 g al/ha): 0 | AMARE phytotoxicity rating (0-100) ([21]; 63 g al/ha): 70 | AMARE phytotoxicity rating (0-100) ([21]; 500 g al/ha): 100 | ABUTH phytotoxicity rating (0-100) ([22]; 63 g al/ha): 100 | ABUTH phytotoxicity rating (0-100) ([22]; 500 g al/ha): 100 | CORN crop damage rating (0-100) ([23]; 63 g al/ha): 0 | CORN crop damage rating (0-100) ([23]; 500 g al/ha): 0 | RICE crop damage rating (0-100) ([24]; 63 g al/ha): 0 | RICE crop damage rating (0-100) ([24]; 500 g al/ha): 30 | SOY crop damage rating (0-100) ([25]; 63 g al/ha): 50 | SOY crop damage rating (0-100) ([25]; 500 g al/ha): 60

O=c1n(-c2cc(Oc3ccccn3)c(Cl)cc2F)c(=S)n2n1CCCC2 [Compound 8-17]
SORHA phytotoxicity rating ([1]; Rate 125 g al/ha): 50 | SORHA phytotoxicity rating ([1]; Rate 500 g al/ha): 100 | ECHCG phytotoxicity rating ([2]; Rate 125 g al/ha): 85 | ECHCG phytotoxicity rating ([2]; Rate 500 g al/ha): 100 | AMBEL phytotoxicity rating ([3]; Rate 125 g al/ha): 100 | AMBEL phytotoxicity rating ([3]; Rate 500 g al/ha): 100 | SETVI phytotoxicity rating ([4]; Rate 125 g al/ha): 100 | SETVI phytotoxicity rating ([4]; Rate 500 g al/ha): 100 | IPOHE phytotoxicity rating ([5]; Rate 125 g al/ha): 80 | IPOHE phytotoxicity rating ([5]; Rate 500 g al/ha): 99 | CHEAL phytotoxicity rating ([6]; Rate 125 g al/ha): 100 | CHEAL phytotoxicity rating ([6]; Rate 500 g al/ha): 100 | DIGSA phytotoxicity rating ([7]; Rate 125 g al/ha): 100 | DIGSA phytotoxicity rating ([7]; Rate 500 g al/ha): 100 | AMARE phytotoxicity rating ([8]; Rate 125 g al/ha): 100 | AMARE phytotoxicity rating ([8]; Rate 500 g al/ha): 100 | CASOB phytotoxicity rating ([9]; Rate 125 g al/ha): 100 | CASOB phytotoxicity rating ([9]; Rate 500 g al/ha): 80 | ABUTH phytotoxicity rating ([10]; Rate 125 g al/ha): 100 | ABUTH phytotoxicity rating ([10]; Rate 500 g al/ha): 100 | CORN crop damage rating ([11]; Rate 125 g al/ha): 10 | CORN crop damage rating ([11]; Rate 500 g al/ha): 30 | RICE crop damage rating ([12]; Rate 125 g al/ha): 50 | RICE crop damage rating ([12]; Rate 500 g al/ha): 95 | SOY crop damage rating ([13]; Rate 125 g al/ha): 0 | SOY crop damage rating ([13]; Rate 500 g al/ha): 95 | phytotoxicity rating AMBEL ([14]; rate 63 g ai/ha): 60 | phytotoxicity rating AMBEL ([14]; rate 500 g ai/ha): 100 | phytotoxicity rating SORHA ([15]; rate 63 g ai/ha): 50 | phytotoxicity rating SORHA ([15]; rate 500 g ai/ha): 100 | phytotoxicity rating ECHCG ([16]; rate 63 g ai/ha): 90 | phytotoxicity rating ECHCG ([16]; rate 500 g ai/ha): 100 | phytotoxicity rating SETVI ([17]; rate 63 g ai/ha): 50 | phytotoxicity rating SETVI ([17]; rate 500 g ai/ha): 90 | phytotoxicity rating IPOHE ([18]; rate 63 g ai/ha): 100 | phytotoxicity rating IPOHE ([18]; rate 500 g ai/ha): 100 | phytotoxicity rating CHEAL ([19]; rate 63 g ai/ha): 99 | phytotoxicity rating CHEAL ([19]; rate 500 g ai/ha): 100 | phytotoxicity rating DIGSA ([20]; rate 63 g ai/ha): 50 | phytotoxicity rating DIGSA ([20]; rate 500 g ai/ha): 90 | phytotoxicity rating AMARE ([21]; rate 63 g ai/ha): 100 | phytotoxicity rating AMARE ([21]; rate 500 g ai/ha): 100 | phytotoxicity rating ABUTH ([22]; rate 63 g ai/ha): 100 | phytotoxicity rating ABUTH ([22]; rate 500 g ai/ha): 100 | crop damage rating CORN ([23]; rate 63 g ai/ha): 20 | crop damage rating CORN ([23]; rate 500 g ai/ha): 10 | crop damage rating RICE ([24]; rate 63 g ai/ha): 40 | crop damage rating RICE ([24]; rate 500 g ai/ha): 90 | crop damage rating SOY ([25]; rate 63 g ai/ha): 90 | crop damage rating SOY ([25]; rate 500 g ai/ha): 100
